The source of these data is patent US20110201023A1, “MANNOSE 6-PHOSPHATE-BINDING ANTIBODIES AND THEIR USES” (UNIVERSITATSKLINKUM HAMBURGEPPENDORF, priority 2008, published 2011).

One assay has as its target scFv M6P-1. Kind of assay: ELISA inhibition study: binding of scFv M6P-1 to immobilized PMP-BSA. Set-up: species or system rabbit. Particulars: for IC50: scFv 0.6 μg/ml preincubated 1 h at 37° C. with 0.01 to 100 mM inhibitor, 45 pmol/cup PMP-BSA, read-out: 50% inhibition (IC50 value) of scFv M6P-1 binding to PMP-BSA; for inhibition of the binding of scFv M6P-1 to PMP-BSA: even at high concentrations (0.01 to 100 mM tested). Here is the method:
ELISA was performed according to the protocol published in Phage-Display: A Laboratory Manual, Cold Spring Harbor Laboratory Press, New York (2001), protocol 19.8, pages 19.29-19.31. For ELISA using monoclonal phage or soluble scFv, PMP-BSA was immobilized by addition of 2.25 pmol neoglycoconjugate (45 pmol PMP ligand, solution in 50 mM carbonate buffer, pH 9.2) to each cup of the ELISA plates (MaxiSorp, Nunc) and overnight incubation at 4° C. Phages were detected using an anti-M13 monoclonal antibody (mAb) HRP-conjugate (GE Healthcare, Freiburg, Germany) and diammonium 2,2′-azino-bis(3-ethylbenzothiazoline-6-sulfonate (AzBTS-(NH4)2, Sigma-Aldrich) as substrate. For scFv-ELISA against PMP-BSA, purified scFv was added at a starting concentration of 5 μg/ml. Bound scFv was detected by incubation with anti-c-myc mAb (gift from Dr. C. R. MacKenzie, NRC of Canada, Ottawa, Canada) and HRP-conjugated goat-anti-mouse IgG H+L (Dianova, Hamburg, Germany). For ELISA inhibition studies, 45 pmoles PMP-BSA were immobilized on ELISA plates. Monomeric scFv M6P-1 was freshly prepared by gelfiltration (see above). Antibody fragment scFv (0.6 μg/ml final concentration) was preincubated for 1 h at 37° C. with or without 0.01 to 100 mM of mannose, glucose, glucose-6-phosphate (Glc6P), Fru1P, or Man6P. 50 μl scFv M6P-1 were added to PMP-BSA (45 pmol/cup ligand concentration). Bound scFv M6P-1 was quantified after incubation (i) with an antibody directed against the c-myc tag of the antibody scFv M6P-1 and (ii) a HRP-conjugated goat-anti-mouse H/L antibody. The […] reaction was measured spectrophotometrically at OD405. All data were measured in quadruplicates and the standard deviation from the mean is indicated. The data were analyzed using Origin version 6.0 software (MicroCal, Northampton, USA) and fitted to a 4 parameter logistic function. The data obtained for inhibition by Man6P and Fru1P were globally fitted to the four replicate data sets, each separately.
(In general: In an ELISA, binding on a coated surface is turned into a signal by an enzyme label.)

Assay [1] concerns scFv M6P-1 conjugated beads / [125I]ASA (human arylsulfatase A). Kind of assay: Immunoprecipitation of [125I]ASA with scFv M6P-1 conjugated beads. Type of assay: binding. The method, then:
Monomeric or dimeric scFv M6P-1 (about 1 mg/ml in PBS, pH 7.2) isolated by gel filtration (see above) was chemically immobilized to AminoLink Plus Coupling gel beads (Pierce, USA) following the suppliers instructions (1 mg scFv M6P-1 was coupled to 2 ml of settled beads). Human arylsulfatase A (ASA)(kindly provided by Dr. […]; Institute for Biochemistry, University of Bielefeld, Germany) was purified by affinity chromatography from media of BHK cells which overexpress the enzyme as described by Sommerlade et al. (1994) Biochem. J. 297, 123-130 and iodinated with IODO-GEN (Pierce) according to the manufacturer's instructions yielding [^125I]ASA with a specific activity of 2 μCi/μg. [^125I]ASA (400,000 cpm) was incubated with 50 μl scFv M6P-1 conjugated beads in 10 mM phosphate buffered saline pH 7.4 containing 0.05% Triton X-100 in a final volume of 0.5 ml in the absence or presence of increasing concentrations of Man6P for 10 h at 4° C. Subsequently, the beads were spun down at 1,200×g for 20 sec, and the supernatant was removed. The beads were washed three times with ice-cold binding buffer, twice with 1 mM phosphate buffered saline pH 7.4, and solubilized in SDS sample buffer. After removal of the beads, the supernatants were separated by SDS-PAGE (10% acrylamide), and the [^125I]ASA was visualized by autoradiography using Kodak films. The intensity of the [^125I]-labeled polypeptides was evaluated by densitometry. Alternatively, the [^125I]-labeled polypeptides were excised from the dried gel and counted in a γ-counter (Wizard 1470, Wallac, Turku, Finland).

Assay [2] can be described thus: Isothermal titration microcalorimetry. The note with it: dimeric scFv M6P-1 in PBS pH 7.2; 10 mM Man6P injected; read-out: Kd for the binding of scFv M6P-1 to Man6P. Here is the method:
The comparison of IC50 values allows the ranking of different ligands according to their relative affinities, however, the absolute affinities in terms of Kd can not be obtained. Therefore, isothermal titration microcalorimetry measurements using Man6P as a ligand were performed. Purified dimeric scFv M6P-1 obtained after gel filtration (both a monomer and a dimer fraction are obtained) was concentrated in Centriprep YM-10 (Millipore) to a final concentration of 2.7 mg/ml in PBS, pH 7.2 and dialysed for 1 h at 20° C. against 500 ml of PBS. The same dialysis buffer was used for preparation of a 10 mM solution of Man6P (Na^+ salt, Sigma-Aldrich). Microcalorimetric experiments were performed on an MCS isothermal titration calorimeter (Microcal Inc., Northampton, Mass., USA). The microcalorimeter cell was filled with the antibody solution (volume=1.5 ml) and Man6P in dialysis buffer loaded into the syringe of the microcalorimeter. Both solutions were thoroughly degassed prior to loading. After temperature equilibration, the ligand was injected into the cell in 4 μl portions and the evolved heat measured with the first injection (1 μl) not considered for data analysis. […] Dissociation constants were determined using the MicroCal Origin version 2.9 analysis software and non-linear least squares curve fitting (1 set of binding sites).
(In ITC the heat of successive injections is recorded.)

The next assay has as its system PMP-BSA. Kind of assay: Phage ELISA against PMP-BSA. Type of assay: binding. The note with it: 1:3 (v/v) dilutions of phage. Here is the method:
The reactivity of the enriched polyclonal phage was tested in an ELISA checkerboard titration against different concentrations of PMP-BSA (3-100 pmol/cup calculated for PMP concentration). At 50 pmol/cup reactivity of the polyclonal phage was observed selectively for PMP-BSA but not for BSA. BstOI (Promega GmbH, Germany) restriction digest of 20 colony PCR products indicated the presence of 7 different clones (4× type A, 10× type B, 2× type C and 1× types D-G). Twelve colonies representing the different types of sequences (5× type B, 2× type A, 1× each of types C-G) were selected for phage production and 1:3 (v/v) dilutions of phage were tested in ELISA against PMP-BSA. […]
ELISA was performed according to the protocol published in Phage-Display: A Laboratory Manual, Cold Spring Harbor Laboratory Press, New York (2001), protocol 19.8, pages 19.29-19.31. […] Phages were detected using an anti-M13 monoclonal antibody (mAb) HRP-conjugate (GE Healthcare, Freiburg, Germany) and diammonium 2,2′-azino-bis(3-ethylbenzothiazoline-6-sulfonate (AzBTS-(NH4)2, Sigma-Aldrich) as substrate. For scFv-ELISA against PMP-BSA, purified scFv was added at a starting concentration of 5 μg/ml. Bound scFv was detected by incubation with anti-c-myc mAb (gift from Dr. C. R. MacKenzie, NRC of Canada, Ottawa, Canada) and HRP-conjugated goat-anti-mouse IgG H+L (Dianova, Hamburg, Germany).

The term IC50 denotes the concentration at which inhibition is half-maximal. For `O=P(O)(O)OC[C@@]1(O)OC[C@@H](O)[C@@H](O)[C@@H]1O` [Fru1P, β-D-fructopyranose-1-phosphate], the IC50 at scFv M6P-1 turned out to be 1100 µM.
Regarding `O=C[C@H](O)[C@@H](O)[C@H](O)[C@H](O)COP(=O)(O)O` [Glc6P, glucose 6-phosphate], the “inhibition of the binding of scFv M6P-1 to PMP-BSA” value in the assay on scFv M6P-1 is “Neither”. Further, the “effect on binding of [125I]-ASA to the antibody beads” value in assay [1] (5 mM) is listed as “no effect”.
The term Ki denotes the dissociation constant of the complex between target and ligand, obtained from inhibition or displacement. Turning to `O=C[C@@H](O)[C@@H](O)[C@H](O)[C@H](O)COP(=O)(O)O` [Man6P, mannose 6-phosphate], the IC50 on scFv M6P-1 is 2300 µM. Further, in assay [1] (Man6P in a concentration of more than 2.5 mM), the “inhibition of binding of [125I]-ASA to the antibody beads” value was “completely inhibited”. Also, in assay [1] (calculated from densitometric evaluation of autoradiographs or radioactivity in excised bands), the Ki is 100 µM.
For the molecule `O=C[C@@H](O)[C@@H](O)[C@H](O)[C@H](O)CO` [mannose], in the assay on scFv M6P-1, the “inhibition of the binding of scFv M6P-1 to PMP-BSA” value is “Neither”.

B1: scFv M6P-1: recombinant rabbit single-chain antibody fragment which specifically binds mannose 6-phosphate; VL SEQ ID NO:7, VH SEQ ID NO:8 (antibody, listed as Oryctolagus cuniculus, V domains shown)
VH: QSVKESEGDLVKPGASLTLTCKASGFDFTWYTMNWVRQAPGKGLEWIACIGAGVYGSNYYASWAKGRFTISKASSTTVTLQMTSLTVADTATYFCARDGINGGYDIWGPGTLVTVSS
VL: ELVMTQTESPVSAAVGGTVTIKCQSSQSVYNNRLAWYQQKPGQRPKLLIYSASTLASGVPSRFKGSGSGTQFTLTISDLEWGDAATYYCHGGYRSNDDRYAFSGGTELEIL
modifications: scFv linker not given
The term Kd denotes the constant that tells how readily two partners part at equilibrium. In the case of B1, the “total offered [125I]-ASA bound specifically to the scFv M6P-1 conjugated beads” value in assay [1] (10 h at 4° C., absence of Man6P) is 20-25%. The equilibrium dissociation constant (Kd) in assay [2] was 28 µM. Moreover, in the assay with PMP-BSA, the “reactivity of monoclonal phage in ELISA against PMP-BSA” value is “reacted”.
